Measurements: PubChem BioAssay AID1919014 (Molecular Pharmacology Branch, DTP, NCI, 2023)
Where “and” joins values, the source holds several entries; their conditions need not be identical. Identical values can stand only once.

Test system: NCI-H1341 complex spheroids, percent test/control
Assay: Anticancer human tumor NCI-H1341 cell line growth inhibition [AhR];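 further: spheroids exposed to agents for seven days before readout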
Details: for viability, T/C: stronger effect = lower value
Method in brief: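 Spheroids combined tumor cells with HUVEC endothelial cells and human MSCs as stroma. AhR antagonists were paired with standard or investigational drugs, each dosed in half-log steps down from near clinical Cmax, or from 10 microM where Cmax was unknown.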

[1] = curve of first compound, second compound 0.1 µM
[2] = curve of first compound, second compound 0.316 µM
[3] = curve of first compound, second compound 1 µM
[4] = curve of first compound, second compound 3.16 µM
[5] = curve of first compound, second compound 10 µM
[6] = second compound 0.1 µM, first compound 0.0316 µM
[7] = second compound 0.1 µM, first compound 0.1 µM
[8] = second compound 0.1 µM, first compound 0.316 µM
[9] = second compound 0.1 µM, first compound 1 µM
[10] = second compound 0.1 µM, first compound 3.16 µM
[11] = second compound 0.1 µM, first compound 10 µM
[12] = second compound 0.316 µM, first compound 0.0316 µM
[13] = second compound 0.316 µM, first compound 0.1 µM
[14] = second compound 0.316 µM, first compound 0.316 µM
[15] = second compound 0.316 µM, first compound 1 µM
[16] = second compound 0.316 µM, first compound 3.16 µM
[17] = second compound 0.316 µM, first compound 10 µM
[18] = second compound 1 µM, first compound 0.0316 µM
[19] = second compound 1 µM, first compound 0.1 µM
[20] = second compound 1 µM, first compound 0.316 µM
[21] = second compound 1 µM, first compound 1 µM
[22] = second compound 1 µM, first compound 3.16 µM
[23] = second compound 1 µM, first compound 10 µM
[24] = second compound 3.16 µM, first compound 0.0316 µM
[25] = second compound 3.16 µM, first compound 0.1 µM
[26] = second compound 3.16 µM, first compound 0.316 µM
[27] = second compound 3.16 µM, first compound 1 µM
[28] = second compound 3.16 µM, first compound 3.16 µM
[29] = second compound 3.16 µM, first compound 10 µM
[30] = second compound 10 µM, first compound 0.0316 µM
[31] = second compound 10 µM, first compound 0.1 µM
[32] = second compound 10 µM, first compound 0.316 µM
[33] = second compound 10 µM, first compound 1 µM
[34] = second compound 10 µM, first compound 3.16 µM
[35] = second compound 10 µM, first compound 10 µM

Row | SMILES | IC50 [1] [nM] | IC50 [2] [nM] | IC50 [3] [nM] | IC50 [4] [nM] | IC50 [5] [nM] | viability, T/C [6] [%] | viability, T/C [7] [%] | viability, T/C [8] [%] | viability, T/C [9] [%] | viability, T/C [10] [%] | viability, T/C [11] [%] | viability, T/C [12] [%] | viability, T/C [13] [%] | viability, T/C [14] [%] | viability, T/C [15] [%] | viability, T/C [16] [%] | viability, T/C [17] [%] | viability, T/C [18] [%] | viability, T/C [19] [%] | viability, T/C [20] [%] | other results
1 | COc1ccc([C@@H](O)c2cc(-c3ncnc4cc(N5CCOCC5)ccc34)c(F)cc2Cl)nn1 + Cc1cncc(-c2nc(NCCc3c[nH]c4ccccc34)c3ncn(C(C)C)c3n2)c1 | 1080 | 592 | 687 | 365 | < 31.6 | 83.7 | 75.9 | 75.9 | 49.9 | 24.6 | 5.31 | 76.3 | 69.3 | 59.9 | 42.6 | 20.3 | 5.39 | 68 | 62.3 | 61.8 | viability, T/C [21]: 44.6%; viability, T/C [22]: 17.4%; viability, T/C [23]: 5.3%; viability, T/C [24]: 71.8%; viability, T/C [25]: 67.6%; viability, T/C [26]: 46%; viability, T/C [27]: 42.1%; viability, T/C [28]: 16.2%; viability, T/C [29]: 4.69%; viability, T/C [30]: 18.4%; viability, T/C [31]: 16.3%; viability, T/C [32]: 13.7%; viability, T/C [33]: 7.45%; viability, T/C [34]: 5.7%; viability, T/C [35]: 3.93%
2 | COc1cc(Nc2ncc3c(n2)-c2ccc(Cl)cc2C(c2c(F)cccc2OC)=NC3)ccc1C(=O)O | – | – | – | – | – | – | – | – | – | – | – | – | – | – | – | – | – | – | – | – | viability, T/C (compound 0.0316 µM): 33% and 48.4% and 43.1%; viability, T/C (compound 0.1 µM): 43.8% and 51.7% and 43%; viability, T/C (compound 0.316 µM): 37% and 43.2% and 50.4%; viability, T/C (compound 1 µM): 29.6% and 37.5% and 36.1%; viability, T/C (compound 3.16 µM): 27.7% and 28% and 29.3%; viability, T/C (compound 10 µM): 22.2% and 26.8% and 26.4%; IC50 (curve of compound): < 31.6 nM
3 | O=C(C=Cc1cccc(S(=O)(=O)Nc2ccccc2)c1)NO + Cc1ccccc1N=Nc1ccc(NC(=O)c2ccnn2C)c(C)c1 | 568 | 419 | 457 | 266 | 338 | 95.4 | 95.6 | 75.8 | 24.8 | 5.9 | 0.79 | 94.8 | 91.9 | 54.7 | 26.2 | 5.71 | 0.82 | 84.3 | 94.1 | 60.3 | viability, T/C [21]: 23%; viability, T/C [22]: 6.42%; viability, T/C [23]: 0.59%; viability, T/C [24]: 77.1%; viability, T/C [25]: 62.2%; viability, T/C [26]: 49.9%; viability, T/C [27]: 25.4%; viability, T/C [28]: 8.47%; viability, T/C [29]: 0.58%; viability, T/C [30]: 59.1%; viability, T/C [31]: 55%; viability, T/C [32]: 53.5%; viability, T/C [33]: 29%; viability, T/C [34]: 10.8%; viability, T/C [35]: 1.49%
4 | NS(=O)(=O)OCC1CC(n2ccc3c(NC4CCc5ccccc54)ncnc32)CC1O (configuration not stated) + Cc1ccccc1N=Nc1ccc(NC(=O)c2ccnn2C)c(C)c1 | 113 | 63.3 | 111 | 110 | < 31.6 | 51.6 | 56.5 | 16.4 | 7.98 | 7.35 | 6.54 | 59 | 44.2 | 16.8 | 9.99 | 7.77 | 6.89 | 61.5 | 53.1 | 22.4 | viability, T/C [21]: 11.4%; viability, T/C [22]: 8.79%; viability, T/C [23]: 6.95%; viability, T/C [24]: 51.5%; viability, T/C [25]: 53.4%; viability, T/C [26]: 23.6%; viability, T/C [27]: 11%; viability, T/C [28]: 7.99%; viability, T/C [29]: 6.85%; viability, T/C [30]: 40.4%; viability, T/C [31]: 35.7%; viability, T/C [32]: 20.2%; viability, T/C [33]: 10.3%; viability, T/C [34]: 8.16%; viability, T/C [35]: 5.99%
